US20220324835A1 (Nurix Therapeutics, Inc., priority 2018, published 2022)

Tests used:
Cbl-b [1] = biological target: T1, Cbl-b (Homo sapiens, UniProt Q13191); experiment: Cbl-b inhibition assay (Cbl-b activity assay, FRET, Biological Example 1; 100 mM NaCl, 60 nM Src kinase); assay type: biochemical; conditions: upper bound stated in text lists; read-out: IC50 values in the Cbl-b inhibition assay of Biological Example 1
How it was run: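 FRET read-out: loss of signal marks inhibition. Mix = biotin-Avi-Cbl-b (N-term), Src kinase, UbcH5B-Ub(Bodipy-FL, irreversible conjugate), streptavidin-Tb, assay buffer.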

T-cell [2] = experiment: IL-2 secretion from T-cells co-stimulated with anti-CD3 and anti-CD28 antibody (Biological Example 2); assay type: cell-based, human; conditions: Homo sapiens, T-cell, primary human total T-cells, baseline = anti-CD3/anti-CD28 stimulated cells without inhibitor, read-out: IL-2 secretion, Anti-CD3/Anti-CD28 stimulation, fold change over baseline; for fold induction at 0.3 µM: 0.3 μM compound; for fold induction at 1 µM: 1 μM compound; for fold induction at 4 µM: 4 μM compound
How it was run: (§1)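 Values are fold-change over baseline: readings (IL-2 release, CD25 staining) from inhibitor-treated T-cells divided against untreated cells […]. No detailed procedure stated.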

T-cell [3] = experiment: CD25 cell surface staining on T-cells co-stimulated with anti-CD3 and anti-CD28 antibody (Biological Example 2); assay type: cell-based, human; conditions: Homo sapiens, T-cell, primary human total T-cells, baseline = anti-CD3/anti-CD28 stimulated cells without inhibitor, read-out: CD25 staining, Anti-CD3/Anti-CD28 stimulation, fold change over baseline; for fold induction at 0.3 µM: 0.3 μM compound; for fold induction at 1 µM: 1 μM compound; for fold induction at 4 µM: 4 μM compound
How it was run: as §1

Cbl-b [4] = biological target: T1, Cbl-b; experiment: Cbl-b activity assay (Cbl-b inhibition assay), TR-FRET of Cbl-b interaction with UbcH5B-Ub; assay type: biochemical; conditions: assay buffer with 100 mM NaCl, 60 nM Src kinase; read-out: Cbl-b activity IC50
How it was run: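 Compound-treated Cbl-b was incubated 1.5 h with Src kinase (60 nM final; 30 nM for asterisked values, which also used 50 mM instead of 100 mM NaCl), 1 mM ATP and 5 mM MgCl2. Binding to fluorescent Ub-loaded UbcH5B (C85K mutant) was then read by TR-FRET after 1 h more.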

Cbl-b (residues 36-427) = Cbl-b (residues 36-427) (Homo sapiens, UniProt Q13191); experiment: Cbl-b binding assay (SPR, Biacore T200); conditions: 20° C., 1:1 binding model
How it was run: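 NeutrAvidin capture chip, 20° C; 50 s injections at 50 μl/min, 90-180 s dissociation; 0.3 M NaCl regeneration. Asterisked column: 50 mM NaCl buffer and 30 nM Src kinase in place of 100 mM NaCl and 60 nM Src kinase. 1:1 fit.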

T-cell [5] = experiment: IL-2 secretion from T-cells stimulated with anti-CD3 antibody alone (Biological Example 2); assay type: cell-based; conditions: primary human total T-cells, read-out: IL-2 secretion, Anti-CD3 stimulation, fold change over baseline; for fold induction at 1 µM: 1 μM compound; for fold induction at 8 µM: 8 μM compound
T-cell [6] = experiment: CD25 cell surface staining on T-cells stimulated with anti-CD3 antibody alone (Biological Example 2); assay type: cell-based; conditions: primary human total T-cells, baseline = anti-CD3/anti-CD28 stimulated cells without inhibitor, read-out: CD25 staining, Anti-CD3 stimulation, fold change over baseline; for fold induction at 1 µM: 1 μM compound; for fold induction at 8 µM: 8 μM compound

T1 sequence (Q13191 36-427): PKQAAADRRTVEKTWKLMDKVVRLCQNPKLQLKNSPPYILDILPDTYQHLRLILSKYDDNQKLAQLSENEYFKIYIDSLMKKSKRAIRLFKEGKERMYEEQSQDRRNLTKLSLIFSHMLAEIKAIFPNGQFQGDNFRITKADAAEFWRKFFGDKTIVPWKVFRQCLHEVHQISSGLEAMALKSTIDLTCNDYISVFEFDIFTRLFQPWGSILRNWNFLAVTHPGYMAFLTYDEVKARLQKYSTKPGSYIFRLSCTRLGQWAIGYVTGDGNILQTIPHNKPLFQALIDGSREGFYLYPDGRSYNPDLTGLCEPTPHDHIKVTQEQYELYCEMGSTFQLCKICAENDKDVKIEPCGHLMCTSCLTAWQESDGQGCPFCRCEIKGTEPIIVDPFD
Cbl-b (residues 36-427), sequence (Q13191 36-427): as above

Cc1c[nH]nc1-c1cc2c(c(C(F)(F)F)c1)CN(c1cccc([C@H](C)Cc3nncn3C)c1)C2=O [Compound 377, 6-(4-methyl-1H-pyrazol-3-yl)-2-{3-[(2R)-1-(4-methyl-4H-1,2,4-triazol-3-yl)propan-2-yl]phenyl}-4-(trifluoromethyl)-2,3-dihydro-1H-isoindol-1-one]
IC50 (Cbl-b [1]): ≤ 100 nM
fold induction at 0.3 µM (T-cell [2]): 1.01 to 2.5
fold induction at 1 µM (T-cell [2]): 5 to 7.5
fold induction at 4 µM (T-cell [2]): > 7.5
fold induction at 0.3 µM (T-cell [3]): 1.31 to 1.5
fold induction at 1 µM (T-cell [3]): 1.51 to 1.75
fold induction at 4 µM (T-cell [3]): > 1.76
IC50 (Cbl-b [4]): < 100 nM
Kd (Cbl-b (residues 36-427)): < 100 nM
fold induction at 1 µM (T-cell [5]): > 0.201
fold induction at 8 µM (T-cell [5]): > 0.201
fold induction at 1 µM (T-cell [6]): 0.601 to 0.8
fold induction at 8 µM (T-cell [6]): 0.801 to 1

Cc1n[nH]c(C)c1-c1cc2c(c(C(F)(F)F)c1)CN(c1cccc([C@H](C)Cc3nncn3C)c1)C2=O [Compound 378, 6-(3,5-dimethyl-1H-pyrazol-4-yl)-2-{3-[(2R)-1-(4-methyl-4H-1,2,4-triazol-3-yl)propan-2-yl]phenyl}-4-(trifluoromethyl)-2,3-dihydro-1H-isoindol-1-one]
IC50 (Cbl-b [1]): ≤ 100 nM
fold induction at 0.3 µM (T-cell [2]): 2.51 to 5
fold induction at 1 µM (T-cell [2]): > 7.5
fold induction at 4 µM (T-cell [2]): > 7.5
fold induction at 0.3 µM (T-cell [3]): 1.31 to 1.5
fold induction at 1 µM (T-cell [3]): 1.51 to 1.75
fold induction at 4 µM (T-cell [3]): > 1.76
IC50 (Cbl-b [4]): < 100 nM
Kd (Cbl-b (residues 36-427)): < 100 nM
fold induction at 1 µM (T-cell [5]): > 0.201
fold induction at 8 µM (T-cell [5]): > 0.201
fold induction at 1 µM (T-cell [6]): > 1
fold induction at 8 µM (T-cell [6]): > 1

C[C@H](Cc1nncn1C)c1cccc(N2Cc3c(cc(N[C@H]4CCNC4)cc3C(F)(F)F)C2=O)c1 [Compound 379, 2-(3-((R)-1-(4-methyl-4H-1,2,4-triazol-3-yl)propan-2-yl)phenyl)-6-(((S)-pyrrolidin-3-yl)amino)-4-(trifluoromethyl)isoindolin-1-one]
IC50 (Cbl-b [1]): ≤ 100 nM
fold induction at 0.3 µM (T-cell [2]): 1.01 to 2.5
fold induction at 1 µM (T-cell [2]): 2.51 to 5
fold induction at 4 µM (T-cell [2]): 2.51 to 5
fold induction at 0.3 µM (T-cell [3]): 1.01 to 1.3
fold induction at 1 µM (T-cell [3]): 1.01 to 1.3
fold induction at 4 µM (T-cell [3]): 1.01 to 1.3
IC50 (Cbl-b [4]): < 100 nM
Kd (Cbl-b (residues 36-427)): < 100 nM
fold induction at 1 µM (T-cell [5]): 0.101 to 0.15
fold induction at 8 µM (T-cell [5]): 0.151 to 0.2
fold induction at 1 µM (T-cell [6]): 0.801 to 1
fold induction at 8 µM (T-cell [6]): > 1

C[C@H](Cc1nncn1C)c1cccc(N2Cc3c(cc(N(C)[C@H]4CCNC4)cc3C(F)(F)F)C2=O)c1 [Compound 380, 6-(methyl((S)-pyrrolidin-3-yl)amino)-2-(3-((R)-1-(4-methyl-4H-1,2,4-triazol-3-yl)propan-2-yl)phenyl)-4-(trifluoromethyl)isoindolin-1-one]
IC50 (Cbl-b [1]): ≤ 100 nM
fold induction at 0.3 µM (T-cell [2]): 2.51 to 5
fold induction at 1 µM (T-cell [2]): 2.51 to 5
fold induction at 4 µM (T-cell [2]): > 7.5
fold induction at 0.3 µM (T-cell [3]): 1.31 to 1.5
fold induction at 1 µM (T-cell [3]): 1.31 to 1.5
fold induction at 4 µM (T-cell [3]): 1.51 to 1.75
IC50 (Cbl-b [4]): < 100 nM
Kd (Cbl-b (residues 36-427)): < 100 nM
fold induction at 1 µM (T-cell [5]): 0.151 to 0.2
fold induction at 8 µM (T-cell [5]): > 0.201
fold induction at 1 µM (T-cell [6]): 0.801 to 1
fold induction at 8 µM (T-cell [6]): > 1

Cc1[nH]ncc1-c1cc2c(c(C(F)(F)F)c1)CN(c1cccc([C@H](C)Cc3nncn3C)c1)C2=O [Compound 381, 6-(5-methyl-1H-pyrazol-4-yl)-2-{3-[(2R)-1-(4-methyl-4H-1,2,4-triazol-3-yl)propan-2-yl]phenyl}-4-(trifluoromethyl)-2,3-dihydro-1H-isoindol-1-one]
IC50 (Cbl-b [1]): ≤ 100 nM
fold induction at 0.3 µM (T-cell [2]): 2.51 to 5
fold induction at 1 µM (T-cell [2]): 5 to 7.5
fold induction at 4 µM (T-cell [2]): > 7.5
fold induction at 0.3 µM (T-cell [3]): 1.31 to 1.5
fold induction at 1 µM (T-cell [3]): 1.51 to 1.75
fold induction at 4 µM (T-cell [3]): 1.51 to 1.75
IC50 (Cbl-b [4]): < 100 nM
Kd (Cbl-b (residues 36-427)): < 100 nM
fold induction at 1 µM (T-cell [5]): 0.151 to 0.2
fold induction at 8 µM (T-cell [5]): > 0.201
fold induction at 1 µM (T-cell [6]): 0.801 to 1
fold induction at 8 µM (T-cell [6]): > 1

C[C@H](Cc1nncn1C)c1cccc(N2Cc3c(cc([C@H]4CCCNC4)cc3C(F)(F)F)C2=O)c1 [Compound 383, 2-(3-((R)-1-(4-methyl-4H-1,2,4-triazol-3-yl)propan-2-yl)phenyl)-6-((R)-piperidin-3-yl)-4-(trifluoromethyl)isoindolin-1-one]
IC50 (Cbl-b [1]): ≤ 100 nM
fold induction at 0.3 µM (T-cell [2]): 2.51 to 5
fold induction at 1 µM (T-cell [2]): 5 to 7.5
fold induction at 4 µM (T-cell [2]): > 7.5
fold induction at 0.3 µM (T-cell [3]): 1.31 to 1.5
fold induction at 1 µM (T-cell [3]): 1.51 to 1.75
fold induction at 4 µM (T-cell [3]): 1.51 to 1.75
IC50 (Cbl-b [4]): < 100 nM
Kd (Cbl-b (residues 36-427)): 100 to 300 nM
fold induction at 1 µM (T-cell [5]): > 0.201
fold induction at 8 µM (T-cell [5]): > 0.201
fold induction at 1 µM (T-cell [6]): 0.801 to 1
fold induction at 8 µM (T-cell [6]): > 1

C[C@H](Cc1nncn1C)c1cccc(N2Cc3c(cc(-n4cccn4)cc3C(F)(F)F)C2=O)c1 [Compound 384, (R)-2-(3-(1-(4-methyl-4H-1,2,4-triazol-3-yl)propan-2-yl)phenyl)-6-(1H-pyrazol-1-yl)-4-(trifluoromethyl)isoindolin-1-one]
IC50 (Cbl-b [1]): ≤ 100 nM
fold induction at 0.3 µM (T-cell [2]): 2.51 to 5
fold induction at 1 µM (T-cell [2]): > 7.5
fold induction at 4 µM (T-cell [2]): > 7.5
fold induction at 0.3 µM (T-cell [3]): 1.31 to 1.5
fold induction at 1 µM (T-cell [3]): 1.51 to 1.75
fold induction at 4 µM (T-cell [3]): 1.51 to 1.75
IC50 (Cbl-b [4]): < 100 nM
Kd (Cbl-b (residues 36-427)): < 100 nM
fold induction at 1 µM (T-cell [5]): > 0.201
fold induction at 8 µM (T-cell [5]): > 0.201
fold induction at 1 µM (T-cell [6]): > 1
fold induction at 8 µM (T-cell [6]): > 1

C[C@H](Cc1nncn1C)c1cccc(N2Cc3c(cc(CO)cc3C(F)(F)F)C2=O)c1 [Compound 392, (R)-6-(hydroxymethyl)-2-(3-(1-(4-methyl-4H-1,2,4-triazol-3-yl)propan-2-yl)phenyl)-4-(trifluoromethyl)isoindolin-1-one]
IC50 (Cbl-b [1]): ≤ 100 nM
fold induction at 0.3 µM (T-cell [2]): 2.51 to 5
fold induction at 1 µM (T-cell [2]): 5 to 7.5
fold induction at 4 µM (T-cell [2]): > 7.5
fold induction at 0.3 µM (T-cell [3]): 1.01 to 1.3
fold induction at 1 µM (T-cell [3]): 1.01 to 1.3
fold induction at 4 µM (T-cell [3]): 1.31 to 1.5
IC50 (Cbl-b [4]): < 100 nM
Kd (Cbl-b (residues 36-427)): < 100 nM
fold induction at 1 µM (T-cell [5]): 0.151 to 0.2
fold induction at 8 µM (T-cell [5]): > 0.201
fold induction at 1 µM (T-cell [6]): > 1
fold induction at 8 µM (T-cell [6]): > 1

C[C@H](Cc1nncn1C)c1cccc(N2Cc3c(cc(CN4C[C@@H](O)[C@H](F)C4)cc3C(F)(F)F)C2=O)c1 [Compound 395, 6-(((3R,4R)-3-fluoro-4-hydroxypyrrolidin-1-yl)methyl)-2-(3-((R)-1-(4-methyl-4H-1,2,4-triazol-3-yl)propan-2-yl)phenyl)-4-(trifluoromethyl)isoindolin-1-one]
IC50 (Cbl-b [1]): ≤ 100 nM
fold induction at 0.3 µM (T-cell [2]): 2.51 to 5
fold induction at 1 µM (T-cell [2]): > 7.5
fold induction at 4 µM (T-cell [2]): > 7.5
fold induction at 0.3 µM (T-cell [3]): 1.01 to 1.3
fold induction at 1 µM (T-cell [3]): 1.31 to 1.5
fold induction at 4 µM (T-cell [3]): 1.31 to 1.5
IC50 (Cbl-b [4]): < 100 nM
Kd (Cbl-b (residues 36-427)): < 100 nM
fold induction at 1 µM (T-cell [5]): > 0.201
fold induction at 8 µM (T-cell [5]): > 0.201
fold induction at 1 µM (T-cell [6]): > 1
fold induction at 8 µM (T-cell [6]): > 1

C[C@H](Cc1nncn1C)c1cccc(N2Cc3c(cc(CN4CCC(F)(F)C4)cc3C(F)(F)F)C2=O)c1 [Compound 396, (R)-6-((3,3-difluoropyrrolidin-1-yl)methyl)-2-(3-(1-(4-methyl-4H-1,2,4-triazol-3-yl)propan-2-yl)phenyl)-4-(trifluoromethyl)isoindolin-1-one]
IC50 (Cbl-b [1]): ≤ 100 nM
fold induction at 0.3 µM (T-cell [2]): 2.51 to 5
fold induction at 1 µM (T-cell [2]): 5 to 7.5
fold induction at 4 µM (T-cell [2]): > 7.5
fold induction at 0.3 µM (T-cell [3]): 1.01 to 1.3
fold induction at 1 µM (T-cell [3]): 1.01 to 1.3
fold induction at 4 µM (T-cell [3]): 1.31 to 1.5
IC50 (Cbl-b [4]): < 100 nM
Kd (Cbl-b (residues 36-427)): < 100 nM
fold induction at 1 µM (T-cell [5]): 0.151 to 0.2
fold induction at 8 µM (T-cell [5]): > 0.201
fold induction at 1 µM (T-cell [6]): > 1
fold induction at 8 µM (T-cell [6]): > 1
